Like-named read-outs stand apart in the source and are kept apart here.
Experiments:
[1] = tested on: SD rats; assay: animal or person; type: in vivo, rat; details: iv; for minimal effective dose: Rattus norvegicus, read-out: Minimal effective anesthetic dose(mg/kg); for Onset time / Righting Reflex Duration / Sedation Duration: rat, in vivo
[2] = tested on: SD rats; assay: animal or person; type: in vivo; details: Rattus norvegicus, iv, read-out: Minimal effective analgesic dose(mg/kg)

Row | SMILES | minimal effective dose [1] | Onset time [1] | Righting Reflex Duration [1] | Sedation Duration [1] | minimal effective dose [2]
1 | CCCOc1ccc(N(C(=O)OCC)N2CCN(c3cc(C(C)C)c(O)c(C(C)C)c3)CC2)cc1 [Cpd-99] | 10 to 20 mg/kg | 1.03 to 1.38 min | 25.58 to 25.87 min | 67.73 to 88.57 min | 10 to 20 mg/kg
2 | CCOC(=O)N(c1ccc(OC)cc1)N1CCN(c2cc(C(C)C)c(O)c([C@@H](C)C3CC3)c2)CC1 [Cpd-107] | 5 to 10 mg/kg | 0.42 to 1.52 min | 0.72 to 34.8 min | 34.37 to 73.58 min | 10 to 20 mg/kg
3 | CCOC(=O)N(c1ccc(Cl)cc1)N1CCN(c2cc(C(C)C)c(O)c(C(C)C)c2)CC1 [Cpd-65] | 10 to 20 mg/kg | 0.92 to 1.17 min | 11.30 to 16.67 min | 101.42 to 123.97 min | 10 to 20 mg/kg
4 | CCOC(=O)C1(c2ccc(Cl)cc2Cl)CCN(c2cc(C(C)C)c(O)c(C(C)C)c2)CC1 [Cpd-28] | 20 to 40 mg/kg | 0.73 to 1.02 min | 2.97 to 12.00 min | 31.98 to 218.72 min | 20 to 40 mg/kg
5 | CCC(=O)N(c1ccccc1)N1CCN(c2cc(C(C)C)c(O)c(C(C)C)c2)CC1 [Cpd-46] | 5 to 10 mg/kg | 1.58 min | 2.17 min | 12.95 min | 5 to 10 mg/kg
6 | CCOC(=O)N(c1cccc(C)c1)N1CCN(c2cc(C(C)C)c(O)c([C@H](C)C3CC3)c2)CC1 [Cpd-70] | 10 to 20 mg/kg | 0.38 to 1.07 min | 5.02 to 39.35 min | 48.32 to 106.60 min | 10 to 20 mg/kg
7 | COC(=O)N(c1ccccc1)N1CCN(c2cc(C(C)C)c(O)c(C(C)C)c2)CC1 [Cpd-45] | 5 to 10 mg/kg | 0.38 to 0.58 min | 9.45 to 21.03 min | 21.22 to 30.92 min | 5 to 10 mg/kg
8 | CCC(=O)N(c1ccccc1)C1CCN(c2cc(C(C)C)c(O)c(C(C)C)c2)CC1 [Cpd-1] | < 5 mg/kg | 0.38 to 0.62 min | 6.27 to 10.78 min | 19.02 to 22.97 min | < 5 mg/kg
9 | CCOC(=O)N(Cc1ccc(OC)cc1)N1CCN(c2cc(C(C)C)c(O)c(C(C)C)c2)CC1 [Cpd-124] | 20 to 40 mg/kg | 0.15 to 0.68 min | 2.83 to 65.08 min |  | 20 to 40 mg/kg
10 | COc1ccc(C2(C(=O)OC(C)C)CCN(c3cc(C(C)C)c(O)c(C(C)C)c3)CC2)cc1 [Cpd-123] | 20 to 40 mg/kg | 0.77 min | 24.08 min | 75.50 min | 20 to 40 mg/kg
11 | CCOC(=O)C1(c2cccs2)CCN(c2cc(C(C)C)c(O)c(C(C)C)c2)CC1 [Cpd-24] | 5 to 10 mg/kg | 0.85 min | 11.60 min | 21.70 min | 5 to 10 mg/kg
12 | CCOC(=O)C1(c2ccccc2)CCN(c2cc(C(C)C)c(O)c(C(C)C)c2)CC1 [Cpd-21] | < 5 mg/kg | 1.35 min | 1.32 min | 20.10 min | < 5 mg/kg
13 | CCOC(=O)N(c1ccccc1)N1CCN(c2cc(C(C)C)c(O)c([C@@H](C)C3CC3)c2)CC1 [Cpd-105] | 5 to 10 mg/kg | 0.68 to 1.80 min | 0.24 to 22.82 min | 50.17 to 52.20 min | 10 to 20 mg/kg
14 | CCOC(=O)N(Cc1ccsc1)N1CCN(c2cc(C(C)C)c(O)c(C(C)C)c2)CC1 [Cpd-125] | 10 to 20 mg/kg | 1.22 min | 6.87 min | 53.93 min | 10 to 20 mg/kg
15 | CCOC(=O)N(c1cccc(Cl)c1)N1CCN(c2cc(C(C)C)c(O)c(C(C)C)c2)CC1 [Cpd-61] | 10 to 20 mg/kg | 0.55 to 1.25 min | 4.15 to 41.88 min | 89.98 to 162.23 min | 10 to 20 mg/kg
16 | CCOC(=O)N(c1cccc(Cl)c1)N1CCN(c2cc(C(C)C)c(O)c([C@H](C)C3CC3)c2)CC1 [Cpd-69] | 10 to 20 mg/kg | 0.68 to 2.12 min | 1.28 to 74.05 min | 19.78 to 160.07 min | 10 to 20 mg/kg
17 | CC(C)OC(=O)C1(c2ccccc2)CCN(c2cc(C(C)C)c(O)c(C(C)C)c2)CC1 [Cpd-26] | 5 to 10 mg/kg | 0.98 to 1.77 min | 12.33 to 28.05 min | 26.52 to 182.97 min | 5 to 10 mg/kg
18 | CCOC(=O)N(c1cccc(OC)c1)N1CCN(c2cc(C(C)C)c(O)c(C(C)C)c2)CC1 [Cpd-63] | 10 to 20 mg/kg | 0.18 to 0.50 min | 6.92 to 33.82 min | 50.33 to 193.58 min | 20 to 40 mg/kg
19 | CCOC(=O)N(c1ccccc1)N1CCN(c2cc(C(C)C)c(O)c(C(C)C3CC3)c2)CC1 (centres unmarked) [Cpd-53] | < 5 mg/kg | 0.47 to 1.27 min | 2.00 to 37.20 min | 27.75 to 167.40 min | 5 to 10 mg/kg
20 | CCOC(=O)C1(c2cccc(OC)c2)CCN(c2cc(C(C)C)c(O)c(C(C)C)c2)CC1 [Cpd-39] | 10 to 20 mg/kg | 0.73 to 1.07 min | 7.45 to 24.00 min | 34.33 to 39.48 min | 10 to 20 mg/kg
21 | CCOC(=O)N(c1ccc(OCC(C)C)cc1)N1CCN(c2cc(C(C)C)c(O)c(C(C)C)c2)CC1 [Cpd-104] | 20 to 40 mg/kg | 0.42 min | 59.33 min | 377.87 min | 20 to 40 mg/kg
22 | CCOC(=O)N(c1ccc(SC)cc1)N1CCN(c2cc(C(C)C)c(O)c(C(C)C)c2)CC1 [Cpd-97] | 5 to 10 mg/kg | 0.20 to 0.60 min | 5.25 to 32.28 min | 31.60 to 83.28 min | 10 to 20 mg/kg
23 | CCOC(=O)C1(c2ccccc2)CCN(c2cc(C(C)C)c(O)c([C@H](C)C3CC3)c2)CC1 [Cpd-25] | 5 to 10 mg/kg | 1.28 to 2.95 min | 3.45 to 6.43 min | 17.48 to 23.03 min | 5 to 10 mg/kg
24 | CCCC(=O)N(c1ccccc1)C1CCN(c2cc(C(C)C)c(O)c(C(C)C)c2)CC1 [Cpd-13] | 5 to 10 mg/kg | 0.35 min | 20.27 min | 41.57 min | 5 to 10 mg/kg
25 | CCOC(=O)N(c1ccc(OC)c(OC)c1)N1CCN(c2cc(C(C)C)c(O)c(C(C)C)c2)CC1 [Cpd-96] | 20 to 40 mg/kg | 0.13 to 0.75 min | 1.32 to 43.20 min | 86.20 to 295.93 min | 20 to 40 mg/kg
26 | CCOC(=O)N(c1ccc(OC(C)C)cc1)N1CCN(c2cc(C(C)C)c(O)c(C(C)C)c2)CC1 [Cpd-100] | 20 to 40 mg/kg | 0.37 to 0.95 min | 6.65 to 26.68 min | 62.20 to 114.60 min | 20 to 40 mg/kg
27 | CCOC(=O)N(c1ccc(C)cc1)N1CCN(c2cc(C(C)C)c(O)c(C(C)C)c2)CC1 [Cpd-66] | 20 to 40 mg/kg | 0.22 min | 40.40 min | 115.20 min | 20 to 40 mg/kg

Reference: US20260217651A1 (priority 2022, published 2026)
